These results are taken from patent US8058242B2, “Chimeric proteins with natriuretic activity” (The University of Queensland, priority 2004, dated 2011).

Positions of bridges follow the written chain, without caps; N, C: chain ends. Non-standard residues stand in square brackets, D forms with d. Residues, ends and D or L forms follow the SMILES beside them. No end group written: not given here. pGlu = O=C1CC[C@@H](C(=O)O)N1; Sec = N[C@@H](C[SeH])C(=O)O; Nle = CCCC[C@H](N)C(=O)O

The target in assay [1] is T1, Natriuretic Peptide Receptor-A (NPR-A) signaling in MDCK cells (Canis lupus familiaris, UniProt A0A8I3MHU3).
T1 sequence (A0A8I3MHU3 32-1060): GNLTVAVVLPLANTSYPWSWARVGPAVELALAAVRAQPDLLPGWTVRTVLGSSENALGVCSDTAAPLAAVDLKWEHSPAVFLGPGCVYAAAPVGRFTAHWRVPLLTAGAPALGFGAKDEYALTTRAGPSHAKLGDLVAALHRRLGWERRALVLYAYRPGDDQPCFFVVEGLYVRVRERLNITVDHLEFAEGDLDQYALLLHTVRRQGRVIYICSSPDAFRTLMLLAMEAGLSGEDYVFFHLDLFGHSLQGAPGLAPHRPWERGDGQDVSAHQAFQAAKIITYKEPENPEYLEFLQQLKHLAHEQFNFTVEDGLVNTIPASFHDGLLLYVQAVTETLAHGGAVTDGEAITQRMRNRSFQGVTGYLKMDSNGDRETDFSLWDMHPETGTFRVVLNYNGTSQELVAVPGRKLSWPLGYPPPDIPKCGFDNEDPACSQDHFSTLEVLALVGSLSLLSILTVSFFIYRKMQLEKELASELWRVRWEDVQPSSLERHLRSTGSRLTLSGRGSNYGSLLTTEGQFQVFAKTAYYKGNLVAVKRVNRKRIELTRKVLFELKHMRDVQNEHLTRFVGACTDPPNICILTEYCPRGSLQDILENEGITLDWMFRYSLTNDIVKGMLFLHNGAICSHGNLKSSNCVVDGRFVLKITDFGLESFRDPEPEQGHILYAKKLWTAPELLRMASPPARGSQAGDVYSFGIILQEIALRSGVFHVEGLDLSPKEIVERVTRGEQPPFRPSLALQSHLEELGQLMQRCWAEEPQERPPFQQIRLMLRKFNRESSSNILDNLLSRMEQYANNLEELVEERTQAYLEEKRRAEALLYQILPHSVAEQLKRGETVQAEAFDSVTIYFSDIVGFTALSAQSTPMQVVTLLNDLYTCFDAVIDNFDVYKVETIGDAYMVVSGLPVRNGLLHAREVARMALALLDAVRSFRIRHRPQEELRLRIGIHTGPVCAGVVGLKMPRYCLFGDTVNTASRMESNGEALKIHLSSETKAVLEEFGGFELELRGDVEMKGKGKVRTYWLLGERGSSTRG
Type of assay: cell-based, canine. The conditions noted are these: stimulation of cGMP accumulation in MDCK cells.

In assay [2] the test system is conscious rabbits. In words: Blood pressure and heart rate in conscious rabbits, intravenous infusion dose-response (Example 8). The conditions noted are these: for recovery of MAP, in words: 2 hours after infusion; for recovery of MAP from the hypotension, in words: one hour after the end of infusion.
Assay [3] has as its system denuded aortic rings, GC A receptor. As to the kind of experiment: Relaxation of noradrenaline constricted endothelium-denuded aortic rings (Example 11). More on the design: species or system rat. The conditions noted are these: GC-A mediated. On the procedure: Male Sprague Dawley rats were killed and the descending thoracic aorta rapidly removed and flushed with physiological solution. After being cleared of adhering fat and connective tissue, 5 mm rings were mounted under 10 g resting tension, between two stainless steel hooks, in organ baths (37° C.) containing carbogenated (95% O2 and 5% CO2) physiological salt solution of the following composition (mM): NaCl, 118.4; NaHCO3, 25; glucose, 11; KCl, 4.7; MgSO4, 1.2; KH2PO4, 1.2 and CaCl2, 2.5. The lower hook was attached to a tissue holder and the upper hook to a force displacement transducer (Grass FTO3). Where indicated endothelial cells were removed by gentle rubbing of the intimal surface with a wire. To confirm the presence or absence of endothelial cells, tissues were precontracted with a sub-maximal concentration of phenylephrine (0.3 μM) and the response to acetylcholine (ACh, 10 μM) observed. Ach-induced relaxation greater than 80% of maximum indicated the presence of endothelium; whereas Ach-induced relaxation less than 10% indicated the absence of endothelium. Ring preparations under resting tension were conditioned by two contraction/relaxation cycles with 40 mM KCl, contracted by a third application of 40 mM KCl and then relaxed with different doses of the venom peptides. Responses were expressed as a percentage relaxation of the precontraction by KCl.
In addition to the peptides tested in example 3, a series of 13 analogs corresponding to the 2a, 2b and 2c grouping of peptides were examined for their ability to dilate noradrenaline constricted aortic rings. The degree of constriction was expressed as a percentage of the KCl induced constriction. The aortic rings were prepared in a manner similar to the method described in example 3. […]. In each case there were at least 3 separate aortic rings tested per peptide and all were denuded of endothelium to ensure responses were confined to the GC A receptor.

The mark [4] stands for this setting: after a 2 hour recovery period, Table 10B.
[5] abbreviates: final dose, Table 10B, groups 2B and 2C.
[6] abbreviates: after 1 hour recovery period, Table 10A.
The mark [7] stands for this setting: highest dose, Table 10A, groups 1, 2A and 3.

The term EC50 denotes the concentration giving half of the maximal effect. Turning to `CC[C@H](C)[C@H](NC(=O)[C@H](CCCCN)NC(=O)[C@H](CO)NC(=O)[C@H](CC(=O)O)NC(=O)[C@@H](N)CO)C(=O)NCC(=O)N[C@@H](C)C(=O)NCC(=O)N[C@H]1CSSC[C@@H](C(=O)N[C@@H](CC(N)=O)C(=O)N[C@@H](CCCNC(=N)N)C(=O)N[C@H](C(=O)N[C@@H](CCSC)C(=O)N[C@@H](CCC(N)=O)C(=O)N[C@@H](CC(N)=O)C(=O)N2CCC[C@H]2C(=O)N2CCC[C@H]2C(=O)N[C@@H](CCCCN)C(=O)N[C@@H](CCCCN)C(=O)N[C@@H](Cc2ccccc2)C(=O)N[C@@H](CO)C(=O)NCC(=O)N[C@@H](CCC(=O)O)C(=O)O)[C@@H](C)CC)NC(=O)CNC(=O)[C@H](CC(C)C)NC(=O)CNC(=O)[C@H](CO)NC(=O)[C@H](C(C)C)NC(=O)[C@H](CO)NC(=O)CNC(=O)[C@H]([C@@H](C)CC)NC(=O)[C@H](CCCNC(=N)N)NC(=O)[C@H](CC(=O)O)NC(=O)[C@H](CC(C)C)NC(=O)[C@@H]2CCCN2C(=O)[C@H](Cc2ccccc2)NC(=O)CNC(=O)[C@H](Cc2ccccc2)NC1=O` [TNPc A7] (H-SDSKIGAGCFGFPLDRIGSVSGLGCNRIMQNPPKKFSGE-OH; disulfide 9-25; N-terminus assumed), the “−Log10 EC50 (pEC50) ± Standard Error” value in assay [1] stood at 6.867 ± 0.1915. Also, in assay [1] (read-out: EC50 (M) ± Standard Error), the EC50 was determined as 1.61e-07 M. Further, the “recovery of MAP, in words” value in assay [2] was “did not recover after 2 hours”. Also, in assay [2] (Table 10B), the “MAP at final dose” value turned out to be 64.0 mm Hg. Besides, in assay [2] (setting [4]), the “Recovery (MAP)” value was determined as 71.3 mm Hg and the “Recovery Delta SED (MAP)” value was 7.3 ± 2.9 mm Hg. For the same molecule, the “Treatment Effect, change of mean blood pressure during the infusion” value (“Treatment Effect, change” for short) in assay [2] (setting [5]) is listed as −11.2 mm Hg. Further, the “Mean relaxation SEM of denuded aortic rings expressed as % of KCl response” value (shortened to “Mean relaxation SEM … as % of KCl response”) in assay [3] turned out to be 32.9 ± 4.5%.
With “SDSKIGNGCFGFPLDRIGSVSGLGCNRIMQNRPKKFSGE (A portion of a natriuretic peptide) [TNPc P32R]”, in assay [2] (setting [6]), the “Recovery (MAP)” value turned out to be 57.6 mm Hg and the “Recovery Delta SED (MAP)” value is on record as 0.1 ± 1.4 mm Hg. Moreover, the “MAP at final dose” value in assay [2] (highest dose, Table 10A) stood at 57.5 mm Hg. For the same molecule, the “Treatment Effect, change” value in assay [2] (setting [7]) is −19.9 mm Hg. Further, the “recovery of MAP from the hypotension, in words” value in assay [2] is “did recover from the hypotension”. The “Mean relaxation SEM … as % of KCl response” value in assay [3] worked out at 66.4 ± 8.8%.
On to “SDSKIGNGCFGFPLDRIGSVSGLGCNRInQNPPKKFSGE (SDSKIGNGCFGFPLDRIGSVSGLGCNRI[Nle]QNPPKKFSGE; disulfide 9-25 (inferred); ends not checked) [TNPc Nle]”, for which, in assay [2], the “recovery of MAP, in words” value is reported as “partially recovered”. For the same molecule, the “MAP at final dose” value in assay [2] (Table 10B) was determined as 53.4 mm Hg. In assay [2] (setting [4]), the “Recovery (MAP)” value is reported as 64.5 mm Hg and the “Recovery Delta SED (MAP)” value is listed as 11.0 ± 3.0 mm Hg. The “Treatment Effect, change” value in assay [2] (setting [5]) is −13.6 mm Hg. In addition, in assay [3], the “Mean relaxation SEM … as % of KCl response” value is given as 61.0 ± 2.5%.
For “SDSKIGNGCFGFPLDRIGSVSGLGCNRPMQNPPKKFSGE (A portion of a natriuretic peptide) [TNPc I28P]”, in assay [2] (setting [6]), the “Recovery (MAP)” value is given as 66.6 mm Hg and the “Recovery Delta SED (MAP)” value is 1.2 ± 2.4 mm Hg. Also, in assay [2] (highest dose), the “reduction of MAP compared to vehicle, in words” value is listed as “did significantly reduce MAP”. In addition, in assay [2] (highest dose, Table 10A), the “MAP at final dose” value is 65.4 mm Hg. In addition, in assay [2] (setting [7]), the “Treatment Effect, change” value was −9.1 mm Hg. In assay [2], the “recovery of MAP from the hypotension, in words” value is recorded as “did recover from the hypotension”. The “Mean relaxation SEM … as % of KCl response” value in assay [3] is reported as 52.6 ± 5.0%.
On to “SDSKIGNGUFGFPLDRIGSVSGLGUNRIMQNPPKKFSGE (SDSKIGNG[Sec]FGFPLDRIGSVSGLG[Sec]NRIMQNPPKKFSGE; ends and bridges not checked) [TNPc diseleno]”, for which the “recovery of MAP, in words” value in assay [2] is reported as “did not recover after 2 hours”. The “MAP at final dose” value in assay [2] (Table 10B) was found to be 61.0 mm Hg. Besides, in assay [2] (setting [4]), the “Recovery (MAP)” value is on record as 65.8 mm Hg and the “Recovery Delta SED (MAP)” value amounted to 4.8 ± 0.3 mm Hg. Also, in assay [2] (setting [5]), the “Treatment Effect, change” value is −12.6 mm Hg. In addition, in assay [3], the “Mean relaxation SEM … as % of KCl response” value turned out to be 60.5 ± 9.6%.
Turning to “SDSKISAGCFGFPLDRIGSVSGLGCNRIMQNPPKKFSGE (A portion of a natriuretic peptide) [TNPc A7S6]”, the “recovery of MAP, in words” value in assay [2] is listed as “partially recovered”. Also, the “MAP at final dose” value in assay [2] (Table 10B) is listed as 56.3 mm Hg. For the same molecule, in assay [2] (setting [4]), the “Recovery (MAP)” value was found to be 66.8 mm Hg and the “Recovery Delta SED (MAP)” value turned out to be 10.5 ± 3.1 mm Hg. The “Treatment Effect, change” value in assay [2] (setting [5]) is −12.9 mm Hg. Further, the “Mean relaxation SEM … as % of KCl response” value in assay [3] turned out to be 43.1 ± 8.6%.
“SDSKISKGCFGFPLDRIGSVSGLGCNRIMQNPPKKFSGE (A portion of a natriuretic peptide) [TNPc K7S6]”: the “recovery of MAP, in words” value in assay [2] is “did not recover after 2 hours”. The “MAP at final dose” value in assay [2] (Table 10B) was determined as 60.3 mm Hg. Besides, in assay [2] (setting [4]), the “Recovery (MAP)” value amounted to 64.2 mm Hg and the “Recovery Delta SED (MAP)” value turned out to be 3.9 ± 2.6 mm Hg. Further, in assay [2] (setting [5]), the “Treatment Effect, change” value is on record as −12.6 mm Hg. The “Mean relaxation SEM … as % of KCl response” value in assay [3] is 43.8 ± 4.3%.
As for “ZSDSKIGNGCFGFPLDRIGSVSGLGCNRIMQNPPKKFSGE ([pGlu]SDSKIGNGCFGFPLDRIGSVSGLGCNRIMQNPPKKFSGE; disulfide 10-26 (inferred); not fully specified; ends not checked) [TNPc Z0]”, the “recovery of MAP, in words” value in assay [2] was “partially recovered”. Moreover, the “MAP at final dose” value in assay [2] (Table 10B) stood at 63.3 mm Hg. Further, in assay [2] (setting [4]), the “Recovery (MAP)” value is 72.2 mm Hg and the “Recovery Delta SED (MAP)” value worked out at 9.0 ± 1.0 mm Hg. In addition, the “Treatment Effect, change” value in assay [2] (setting [5]) is on record as −11.0 mm Hg. The “Mean relaxation SEM … as % of KCl response” value in assay [3] turned out to be 61.5 ± 5.5%.
